Source: patent US11279768B1, “Anti-cancer antibodies, combination therapies, and uses thereof” (PRECISION BIOLOGICS, INC., priority 2015, dated 2022)

Tests used:
skin cancer samples = assay: Immunohistochemistry, cancer tissue microarray, skin; type: binding
Description: (§1) FIG. 2. Immunohistochemistry results from cancer tissue arrays. Immunohistochemistry method (IHC) was used for determining the presence of NEO-101/102, NEO-201 and NEO-301 antigens on paraffin microarrays and tissues. These primary antibodies (NEO-101/NEO-102, NEO-201 and NEO-301) were biotinylated prior to use. Paraffin tissue Microarrays and slides of tissues were reacted with the primary Ab after inactivating endogenous peroxidase and blocking the slides. Staining was detected with streptavidin-horseradish peroxidase conjugate and visualized with chromogen. Biotinylated human IgG1 was used as negative control and mouse anti-human cytokeratin monoclonal antibody was used as positive control. Antibody staining is measured as % and intensity of tumor epithelial cells and luminal secretion within the whole tissue section.
(§2) Immunohistochemistry (IHC) was used for determining the presence of NEO-101/102, NEO-201 and NEO-301 antigens on paraffin microarrays and tissues. These primary antibodies (NEO-101/NEO-102, NEO-201 and NEO-301) were biotinylated prior to use. […] Staining was detected with streptavidin-horseradish peroxidase conjugate and visualized with chromogen. […] Antibody staining was measured as % and intensity of tumor epithelial cells and luminal secretion within the whole tissue section. […]

[1] = tested on: pancreatic adenocarcinoma cells; assay: Antigen expression by Flow Cytometry, pancreatic adenocarcinoma cell lines; type: binding, Human; settings: primary antibody 10 ug/mL
Method: (§3) FIG. 1. NEO-101, NEO-201 and NEO-301 Antigen Expression by Human Normal and Cancer Cell Lines. NEO-101, NEO-201 and NEO-301 specific antigen expression in various cell lines were detected by Flow Cytometry. Viable cell suspensions were incubated with primary antibody NEO-101, NEO-201 and NEO-301 separately at 10 ug/mL. Human IgG (10 ug/mL) was used as negative control. Goat anti-human IgG (Fc)-phycoerythrin conjugate was used for primary antibody detection; 7-ADD was used for excluding dead cells from analysis. The staining was measured by Flow Cytometry (Guava instrument, Millipore). Median fluorescent intensity (MFI) and % of stained cells was used for determining presence of specific antigen on each cell line.
(§4) Antigen expression in cell lines of various origins were detected by Flow Cytometry. Viable cell suspensions were incubated with primary antibody NEO-101, NEO-201 and NEO-301 separately at 10 ug/mL. Human IgG (10 ug/mL) was used as negative control. Goat anti-human IgG (Fc)-phycoerythrin conjugate was used for primary antibody detection; 7-ADD was used for excluding dead cells from analysis. The staining was measured by Flow Cytometry (Guava instrument, Millipore). Median fluorescent intensity (MFI) and % of stained cells was used for determining presence of specific antigen on each cell line. […]

colon cancer samples [2] = assay: Immunohistochemistry, cancer tissue microarray, colon; type: binding
Description: as §1, §2

lung cancer samples [3] = assay: Immunohistochemistry, paraffin tissue sections, lung; type: binding
Description: as §1, §2

[4] = tested on: pancreatic cancer samples; assay: Immunohistochemistry, paraffin tissue sections, pancreas; type: binding
Description: as §1, §2

uterus cancer samples = assay: Immunohistochemistry, cancer tissue microarray, uterus; type: binding
Description: as §1, §2

colon cancer samples [5] = assay: Immunohistochemistry, paraffin tissue sections, colon; type: binding
Description: as §1, §2

lung cancer samples [6] = assay: Immunohistochemistry, cancer tissue microarray, lung; type: binding
Description: as §1, §2

[7] = tested on: lung adenocarcinoma cells; assay: Antigen expression by Flow Cytometry, lung adenocarcinoma cell lines; type: binding, Human; settings: multiple lung adenocarcinoma cell lines; primary antibody 10 ug/mL
Method: as §3, §4

[8] = tested on: lung squamous carcinoma cells; assay: Antigen expression by Flow Cytometry, lung squamous cell carcinoma cell lines; type: binding, Human; settings: multiple lung squamous cell carcinoma cell lines; primary antibody 10 ug/mL
Method: as §3, §4

[9] = tested on: colorectal adenocarcinoma cells; assay: Antigen expression by Flow Cytometry, colorectal adenocarcinoma cell lines; type: binding, Human; settings: multiple colorectal adenocarcinoma cell lines; primary antibody 10 ug/mL
Method: as §3, §4

[10] = tested on: pancreatic cancer samples; assay: Immunohistochemistry, cancer tissue microarray, pancreas; type: binding
Description: as §1, §2

stomach cancer samples = assay: Immunohistochemistry, cancer tissue microarray, stomach; type: binding
Description: as §1, §2

NEO-201: Humanized 16C3 antibody; binds epitopes in CEACAM5 and CEACAM6
cancer samples positive for the antigen (IHC) (skin cancer samples): 16%
antigen expression detected by Flow Cytometry [1]: detected
cancer samples positive for the antigen (IHC) (colon cancer samples [2]): 85%
cancer samples positive for the antigen (IHC) (lung cancer samples [3]): 90%
cancer samples positive for the antigen (IHC) [4]: 83%
cancer samples positive for the antigen (IHC) (uterus cancer samples): 51%
cancer samples positive for the antigen (IHC) (colon cancer samples [5]): 94%
cancer samples positive for the antigen (IHC) (lung cancer samples [6]): 61%
antigen expression detected by Flow Cytometry [7]: detected
antigen expression detected by Flow Cytometry [8]: detected
antigen expression detected by Flow Cytometry [9]: detected
cancer samples positive for the antigen (IHC) [10]: 86%

B1: NEO-101: Chimeric NPC-1 antibody, engineered in CHO-DG44 production cell clone 4B7; targets a variant of MUC5AC (protein)
light: MDFQVQIFSFLLISASVILSRGQVVLTQSPVIMSASPGEKVTMTCSASSSISYMYWYQQKPGTSPKRWIYDTSKLASGVPARFSGSGSGTSYSLTISNMEAGDAATYYCHQRDSYPWTFGGGTNLEIKRADAAPTVSIFPPSSEQLTSGGASVVCFLNNFYPKDINVKWKIDGSERQNGVLNSWTDQDSKDSTYSMSSTLTLTKDEYERHNSYTCEATHKTSTSPIVKSFNRNEC
heavy: MAVLALLLCLVTFPSCVLSQVQLKESGPDLVAPSQSLSITCTVSGFSLSKFGVNWVRQPPGKGLEWLGVIWGDGSTSYNSGLISRLSISKENSKSQVFLKLNSLQADDTATYYCVKPGGDYWGHGTSVTVSSAKTTPPSVYPLAPGSAAQTNSMVTLGCLVKGYFPEPVTVTWNSGSLSSGVHTFPAVLQSDLYTLSSSVTVPSSTWPSETVTCNVAHPASSTKVDKKIVPRDCGCKPCICTVPEVSSVFIFPPKPKDVLTITLTPKVTCVVVDISKDDPEVQFSWFVDDVEVHTAQTQPREEQFNSTFRSVSELPIMHQDWLNGKEFKCRVNSAAFPAPIEKTISKTKGRPKAPQVYTIPPPKEQMAKDKVSLTCMITDFFPEDITVEWQWNGQPAENYKNTQPIMDTDGSYFVYSKLNVQKSNWEAGNTFTCSVLHEGLHNHHTEKSLSHSPGK
modifications: NPC-1 antibody light chain; (46)..(55) CDR1; (71)..(77) CDR2; (110)..(118) CDR3; NPC-1 antibody heavy chain; (49)..(54) CDR1; (69)..(84) CDR2; (114)..(121) CDR3
notes: Chimeric NPC-1 antibody, engineered in CHO-DG44 production cell clone 4B7; targets a variant of MUC5AC
antigen expression detected by Flow Cytometry [1]: detected
cancer samples positive for the antigen (IHC) (colon cancer samples [2]): 61%
cancer samples positive for the antigen (IHC) (lung cancer samples [3]): 67%
cancer samples positive for the antigen (IHC) [4]: 82%
cancer samples positive for the antigen (IHC) (uterus cancer samples): 41%
cancer samples positive for the antigen (IHC) (colon cancer samples [5]): 87%
cancer samples positive for the antigen (IHC) (stomach cancer samples): 30%
antigen expression detected by Flow Cytometry [9]: detected
cancer samples positive for the antigen (IHC) [10]: 31%
